Drawing on publication PMC4428071, “Structural basis for epitope masking and strain specificity of a conserved epitope in an intrinsically disordered malaria vaccine candidate” (Scientific Reports, 2015), this text covers Kd for one substance.

For the test, the target named is 6D8 scFv. Kind of test: Isothermal titration calorimetry (ITC) of MSP2 and peptides into 6D8 scFv. The note with it: ITC into 6D8 scFv; 20 mM sodium phosphate, 150 mM NaCl, pH 7.4, 25°C; scFv 20 µM, titrant from 200 µM stocks; error estimates from replicate titrations against 6D8 scFv and mAb (n = 3–5); limit of determinable affinities approx. 5 nM. It is filed as binding, mouse. From the text:
The interaction between 6D8 and MSP2, was examined further using isothermal titration calorimetry (ITC). […] Full-length recombinant MSP2 binds 6D8 scFv with lower affinity, permitting quantification by ITC. Even though 6D8 recognizes a fully conserved epitope in MSP2, the affinities of 6D8 scFv for full-length 3D7 and FC27 MSP2 differ by as much as 5-fold (Fig. 3C,D). To explore the basis of this strain-specificity, we synthesized peptides encompassing the minimal 6D8 epitope and extending C-terminally into the variable region. […] Identical affinities were observed when 6D8 IgG was used in place of the scFv (Fig. S4).
The affinity of 6D8 IgG and scFv for synthetic peptides and recombinant MSP2 was determined by ITC (Microcal ITC-200, GE Healthcare) and SPR (Biacore T200, GE Healthcare) using a Mouse Antibody Capture kit (GE Healthcare) (SI Materials and methods). Antibody binding to lipid-tethered MSP2 was assessed SPR using an L1 chip (GE Healthcare). Vesicles of POPC containing 1 mol % DOGS-NTA were adsorbed onto the chip, and loaded with Ni^2+ and then FC27 MSP2–6His. […]
MSP2 peptides were purified on a reverse-phase C18 column (Zorbax, 10 x 300 mm) using a linear gradient of 5 to 40% of solvent B (90% acetonitrile / 9.9% water / 0.1% TFA) against solvent A (0.1% TFA in water) over 40 min. The purity of MSP2 peptides was assessed by mass spectrometry (LC-MS). […]

For orientation: Kd means the constant that tells how readily two partners part at equilibrium. With Ac-NAYNMSIRR-NH2 [MSP2_14-22], the Kd is ~5 nM.
